Reference: the supplement of paper PMC10307832

Columns and labels:
Experiment in all cases: relative viability (nuclei count vs DMSO), 5 days (fraction); higher = more cells survive
LXF-289 = test system: LXF-289
In short: (§1)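 Values are medians from duplicate plates. Each reflects relative viability, defined as the nuclei count of treated wells over that of vehicle wells. Lung cancer cell lines in 1536-well plates were pin-tool dosed one day after seeding with one drug alone or with a fixed anchor-drug dose plus five library-drug doses (not always all listed) in √10 steps, then fixed, stained and imaged at 4× after 5 days.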

HCC-44 = test system: HCC-44
In short: as §1

NCI-H1755 = test system: NCI-H1755
In short: as §1

HCC-827 = test system: HCC-827
In short: as §1

NCI-H1792 = test system: NCI-H1792
In short: as §1

SK-LU-1 = test system: SK-LU-1
In short: as §1

NCI-H1666 = test system: NCI-H1666
In short: as §1

NCI-H3122 = test system: NCI-H3122
In short: as §1

NCI-H2347 = test system: NCI-H2347
In short: as §1

LU99A = test system: LU99A
In short: as §1

NCI-H520 = test system: NCI-H520
In short: as §1

ChaGo-K-1 = test system: ChaGo-K-1
In short: as §1

NCI-H2126 = test system: NCI-H2126
In short: as §1

NCI-H1944 = test system: NCI-H1944
In short: as §1

NCI-H358 = test system: NCI-H358
In short: as §1

CAL-12T = test system: CAL-12T
In short: as §1

ABC-1 = test system: ABC-1
In short: as §1

RERF-LC-KJ = test system: RERF-LC-KJ
In short: as §1

LCLC-103H = test system: LCLC-103H
In short: as §1

NCI-H322M = test system: NCI-H322M
In short: as §1

`Cc1csc(=NC2CCCCC2)n1/N=C/c1ccc(O)c(O)c1O` [MIM1] + C[C@@H](Oc1cc(-c2cnn(C3CCNCC3)c2)cnc1N)c1c(Cl)ccc(F)c1Cl [Crizotinib] (partner 1 µM) was tested. Which relative viability (LXF-289; first compound 0.2 µM) did it give?
Its relative viability is 0.806.

What about the relative viability (LXF-289; first compound 0.6325 µM) of the same compound?
Its relative viability is 0.732.

What about the relative viability (LXF-289; first compound 2 µM) of the same compound?
The relative viability was 0.833.

What about the relative viability (LXF-289; first compound 6.325 µM) of the same compound?
Its relative viability is 0.655.

What about the relative viability (LXF-289; first compound 20 µM) of the same compound?
Its relative viability is 0.388.

What about the relative viability (HCC-44; first compound 0.2 µM) of the same compound?
The relative viability was 0.766.

And the relative viability (HCC-44; first compound 0.6325 µM)?
The relative viability was 0.74.

What about the relative viability (HCC-44; first compound 2 µM) of the same compound?
The relative viability was 0.67.

And the relative viability (HCC-44; first compound 6.325 µM)?
Its relative viability is 0.391.

And the relative viability (HCC-44; first compound 20 µM)?
The relative viability was 0.152.

What about the relative viability (NCI-H1755; first compound 0.2 µM) of the same compound?
Its relative viability is 0.861.

What about the relative viability (NCI-H1755; first compound 0.6325 µM) of the same compound?
The relative viability was 0.794.

And the relative viability (NCI-H1755; first compound 2 µM)?
The relative viability was 0.803.

And the relative viability (NCI-H1755; first compound 6.325 µM)?
Its relative viability is 0.68.

What about the relative viability (NCI-H1755; first compound 20 µM) of the same compound?
The relative viability was 0.179.

And the relative viability (HCC-827; first compound 0.2 µM)?
The relative viability was 0.971.

What about the relative viability (HCC-827; first compound 0.6325 µM) of the same compound?
Its relative viability is 0.919.

What about the relative viability (HCC-827; first compound 2 µM) of the same compound?
Its relative viability is 0.927.

And the relative viability (HCC-827; first compound 6.325 µM)?
The relative viability was 0.307.

And the relative viability (HCC-827; first compound 20 µM)?
The relative viability was 0.366.

And the relative viability (NCI-H1792; first compound 0.2 µM)?
The relative viability was 0.935.

And the relative viability (NCI-H1792; first compound 0.6325 µM)?
Its relative viability is 0.897.

What about the relative viability (NCI-H1792; first compound 2 µM) of the same compound?
The relative viability was 1.02.

And the relative viability (NCI-H1792; first compound 6.325 µM)?
Its relative viability is 0.481.

What about the relative viability (NCI-H1792; first compound 20 µM) of the same compound?
The relative viability was 0.902.

What about the relative viability (SK-LU-1; first compound 0.2 µM) of the same compound?
The relative viability was 1.02.

And the relative viability (SK-LU-1; first compound 0.6325 µM)?
Its relative viability is 0.895.

What about the relative viability (SK-LU-1; first compound 2 µM) of the same compound?
Its relative viability is 1.07.

What about the relative viability (SK-LU-1; first compound 6.325 µM) of the same compound?
The relative viability was 0.815.

What about the relative viability (SK-LU-1; first compound 20 µM) of the same compound?
Its relative viability is 0.843.

And the relative viability (NCI-H1666; first compound 0.2 µM)?
Its relative viability is 0.926.

What about the relative viability (NCI-H1666; first compound 0.6325 µM) of the same compound?
Its relative viability is 0.92.

And the relative viability (NCI-H1666; first compound 2 µM)?
Its relative viability is 0.958.

What about the relative viability (NCI-H1666; first compound 6.325 µM) of the same compound?
The relative viability was 0.663.

And the relative viability (NCI-H1666; first compound 20 µM)?
Its relative viability is 0.238.

What about the relative viability (NCI-H3122; first compound 0.2 µM) of the same compound?
The relative viability was 0.272.

What about the relative viability (NCI-H3122; first compound 0.6325 µM) of the same compound?
The relative viability was 0.251.

And the relative viability (NCI-H3122; first compound 2 µM)?
Its relative viability is 0.32.

What about the relative viability (NCI-H3122; first compound 6.325 µM) of the same compound?
The relative viability was 0.294.

And the relative viability (NCI-H3122; first compound 20 µM)?
The relative viability was 0.204.

And the relative viability (NCI-H2347; first compound 0.2 µM)?
The relative viability was 0.584.

What about the relative viability (NCI-H2347; first compound 0.6325 µM) of the same compound?
The relative viability was 0.548.

And the relative viability (NCI-H2347; first compound 2 µM)?
Its relative viability is 0.677.

And the relative viability (NCI-H2347; first compound 6.325 µM)?
Its relative viability is 0.577.

And the relative viability (NCI-H2347; first compound 20 µM)?
Its relative viability is 0.4.

What about the relative viability (LU99A; first compound 0.2 µM) of the same compound?
The relative viability was 0.56.

What about the relative viability (LU99A; first compound 0.6325 µM) of the same compound?
The relative viability was 0.538.

And the relative viability (LU99A; first compound 2 µM)?
The relative viability was 0.474.

What about the relative viability (LU99A; first compound 6.325 µM) of the same compound?
Its relative viability is 0.481.

What about the relative viability (LU99A; first compound 20 µM) of the same compound?
The relative viability was 0.29.

And the relative viability (NCI-H520; first compound 0.2 µM)?
Its relative viability is 0.688.

What about the relative viability (NCI-H520; first compound 0.6325 µM) of the same compound?
The relative viability was 0.787.

And the relative viability (NCI-H520; first compound 2 µM)?
Its relative viability is 0.862.

What about the relative viability (NCI-H520; first compound 6.325 µM) of the same compound?
The relative viability was 0.578.

And the relative viability (NCI-H520; first compound 20 µM)?
The relative viability was 0.498.

And the relative viability (ChaGo-K-1; first compound 0.2 µM)?
The relative viability was 1.07.

And the relative viability (ChaGo-K-1; first compound 0.6325 µM)?
Its relative viability is 1.13.

What about the relative viability (ChaGo-K-1; first compound 2 µM) of the same compound?
The relative viability was 0.953.

And the relative viability (ChaGo-K-1; first compound 6.325 µM)?
Its relative viability is 0.835.

What about the relative viability (ChaGo-K-1; first compound 20 µM) of the same compound?
The relative viability was 0.285.

And the relative viability (NCI-H2126; first compound 0.2 µM)?
The relative viability was 1.05.

What about the relative viability (NCI-H2126; first compound 0.6325 µM) of the same compound?
The relative viability was 1.05.

And the relative viability (NCI-H2126; first compound 2 µM)?
Its relative viability is 1.03.

What about the relative viability (NCI-H2126; first compound 6.325 µM) of the same compound?
Its relative viability is 0.963.

And the relative viability (NCI-H2126; first compound 20 µM)?
Its relative viability is 0.659.

What about the relative viability (NCI-H1944; first compound 0.2 µM) of the same compound?
The relative viability was 1.11.

And the relative viability (NCI-H1944; first compound 0.6325 µM)?
Its relative viability is 1.09.

And the relative viability (NCI-H1944; first compound 2 µM)?
The relative viability was 0.754.

And the relative viability (NCI-H1944; first compound 6.325 µM)?
The relative viability was 0.811.

What about the relative viability (NCI-H1944; first compound 20 µM) of the same compound?
The relative viability was 0.323.

And the relative viability (NCI-H358; first compound 0.2 µM)?
Its relative viability is 0.572.

And the relative viability (NCI-H358; first compound 0.6325 µM)?
The relative viability was 0.459.

What about the relative viability (NCI-H358; first compound 2 µM) of the same compound?
The relative viability was 0.545.

What about the relative viability (NCI-H358; first compound 6.325 µM) of the same compound?
The relative viability was 0.225.

And the relative viability (NCI-H358; first compound 20 µM)?
Its relative viability is 0.295.

What about the relative viability (CAL-12T; first compound 0.2 µM) of the same compound?
The relative viability was 0.596.

And the relative viability (CAL-12T; first compound 0.6325 µM)?
The relative viability was 0.676.

What about the relative viability (CAL-12T; first compound 2 µM) of the same compound?
Its relative viability is 0.515.

What about the relative viability (CAL-12T; first compound 6.325 µM) of the same compound?
Its relative viability is 0.438.

And the relative viability (CAL-12T; first compound 20 µM)?
The relative viability was 0.283.

What about the relative viability (ABC-1; first compound 0.2 µM) of the same compound?
The relative viability was 1.08.

What about the relative viability (ABC-1; first compound 0.6325 µM) of the same compound?
The relative viability was 1.22.

And the relative viability (ABC-1; first compound 2 µM)?
The relative viability was 0.846.

What about the relative viability (ABC-1; first compound 6.325 µM) of the same compound?
The relative viability was 0.286.

And the relative viability (ABC-1; first compound 20 µM)?
The relative viability was 0.226.

What about the relative viability (RERF-LC-KJ; first compound 0.2 µM) of the same compound?
The relative viability was 0.787.

What about the relative viability (RERF-LC-KJ; first compound 0.6325 µM) of the same compound?
Its relative viability is 0.836.

What about the relative viability (RERF-LC-KJ; first compound 2 µM) of the same compound?
The relative viability was 0.708.

What about the relative viability (RERF-LC-KJ; first compound 6.325 µM) of the same compound?
Its relative viability is 0.499.

What about the relative viability (RERF-LC-KJ; first compound 20 µM) of the same compound?
Its relative viability is 0.267.

What about the relative viability (LCLC-103H; first compound 0.2 µM) of the same compound?
The relative viability was 1.

And the relative viability (LCLC-103H; first compound 0.6325 µM)?
Its relative viability is 1.

What about the relative viability (LCLC-103H; first compound 2 µM) of the same compound?
The relative viability was 1.1.

And the relative viability (LCLC-103H; first compound 6.325 µM)?
The relative viability was 0.909.

And the relative viability (LCLC-103H; first compound 20 µM)?
Its relative viability is 0.985.

And the relative viability (NCI-H322M; first compound 0.2 µM)?
The relative viability was 0.831.

And the relative viability (NCI-H322M; first compound 0.6325 µM)?
The relative viability was 1.02.

And the relative viability (NCI-H322M; first compound 2 µM)?
Its relative viability is 0.762.

And the relative viability (NCI-H322M; first compound 6.325 µM)?
Its relative viability is 0.808.

And the relative viability (NCI-H322M; first compound 20 µM)?
The relative viability was 0.71.
